Measured values reported in patent publication US20150265703A1, “COMBINATION THERAPY OF AN AFUCOSYLATED CD20 ANTIBODY WITH A mTOR INHIBITOR” (ROCHE GLYCART AG, priority 2010, published 2015).

Tested on: SU-DHL-4 human lymphoma cells
Assay: Tumor growth inhibition study in vivo, SC SU-DHL-4 tumors in SCID beige mice
Details: for SU-DHL-4 tumors growth in comparison with tumors from vehicle-treated animals: 3 mg/kg, single agent; for T/C (%) values of the treatment groups compared to the vehicle group: day 46 after tumor cell injection, GA101 3 mg/kg IV Q7Dx4, Torisel 3 mg/kg IP Q3Dx10, SC SU-DHL-4 tumors, SCID beige mice
Method: Test Agents Type II anti-CD20 antibody B-HH6-B-KV1 GE (=humanized B-Ly1, glycoengineered B-HH6-B-KV1=GA101; see WO 2005/044859 and WO 2007/031875) was provided from GlycArt, Schlieren, Switzerland. Antibody buffer included histidine, trehalose and polysorbate 20. Antibody solution was diluted appropriately in PBS from stock for prior injections. Temsirolimus (Torisel®, 25 mg/ml, Wyeth Pharmaceuticals) was supplied by Oncodesign and stored at +4° C. protected from light according to the supplier's instructions.
SU-DHL-4 human lymphoma cells (DSMZ NO.: ACC 495) were grown as a suspension at 37° C. in a humidified atmosphere (5% CO2, 95% air). The culture medium was RPMI 1640 containing 2 mM L-glutamine (Ref BE12-702F, Batch N° 8MB0056, Lonza, Verviers, Belgium) and supplemented with 10% fetal bovine serum (Ref 3302, Batch N^o P282005, Lonza). The cells were counted in a hemocytometer and their viability was assessed by 0.25% trypan blue exclusion.
Female CB17 SCID beige mice, 5-6 week-old and weighing 16-20 g, were obtained from Charles River (L'Arbresle, France).
Ten millions (10^7) SU-DHL-4 tumor cells in 100 μl of PBS with matrigel (50:50, BD Biosciences, France) were subcutaneously (SC) injected into the right flank of 52 female SCID beige mice.
All study data, including animal body weight measurements, tumor volume, clinical and mortality records, and drug treatment management were managed using Vivo Manager® software (Biosystemes, Dijon, France).
Isoflurane Forene (Minerve, Bondoufle, France) was used to anaesthetize the animals before SC inoculation of tumor cells, IV injection of compounds and sacrifice. Mortality, clinical signs and behaviour were recorded every day. Animal body weights and tumor volumes were monitored and recorded twice a week.
When the tumors reached a mean volume of 173±95 mm^3, 40 out of 52 tumor bearing […] mice were distributed in 4 groups of 10 mice. The treatment schedule was chosen as following: • Mice from group 1 received once weekly IV bolus injection of vehicle for 4 consecutive weeks (Q7Dx4). • Mice from group 2 received once weekly IV bolus injection of anti-CD20 antibody GA101 (B-HH6-B-KV1 GE) at 3 mg/kg/inj for 4 consecutive weeks (Q7Dx4). • Mice from group 3 received once daily IP injection of Torisel® at 3 mg/kg/inj with a 3-day interval between each dosing and a total of 10 injections (Q3Dx10). • Mice from group 4 received once weekly IV bolus injection of anti-CD20 antibody GA101 (B-HH6-B-KV1 GE) at 3 mg/kg/inj for 4 consecutive weeks (Q7Dx4) in combination with once daily IP injection of Torisel® at 3 mg/kg/inj with a 3-day interval between each dosing and a total of 10 injections (Q3Dx10)].
The antitumor efficacy of anti-CD20 antibody GA101 (B-HH6-B-KV1 GE) alone and in combination with Torisel® was examined. […]

GA101: Type II anti-CD20 antibody, humanized B-Ly1, glycoengineered B-HH6-B-KV1 (VH SEQ ID NO:7, VL SEQ ID NO:20), afucosylated IgG1
SU-DHL-4 tumors growth in comparison with tumors from vehicle-treated animals: partially delayed | T/C (%) values of the treatment groups compared to the vehicle group: 51%

CO[C@H]1C[C@@H]2CC[C@@H](C)[C@@](O)(O2)C(=O)C(=O)N2CCCC[C@H]2C(=O)O[C@H]([C@H](C)C[C@@H]2CC[C@@H](OC(=O)C(C)(CO)CO)[C@H](OC)C2)CC(=O)[C@H](C)/C=C(\C)[C@@H](O)[C@@H](OC)C(=O)[C@H](C)C[C@H](C)/C=C/C=C/C=C/1C [Torisel, Temsirolimus]
SU-DHL-4 tumors growth in comparison with tumors from vehicle-treated animals: partially delayed | T/C (%) values of the treatment groups compared to the vehicle group: 60%
